From PubChem BioAssay (NCI)
Values joined by “and” are separate entries in the source; they are usually repeats but may differ in a detail not shown here. Identical values can stand only once.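 All cell lines were grown in 96-well plates and treated with compound for 48 hours. Here, GI50 denotes the concentration required for 50% inhibition of growth. TGI: concentration producing complete growth inhibition.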

Tests used:
Assay in all cases: inhibition of tumour cell growth, NCI panel, 48 h
KM12 colon = tested on: KM12 colon
EKVX NSCLC = tested on: EKVX NSCLC
A498 renal = tested on: A498 renal
M14 melanoma = tested on: M14 melanoma
MCF7 breast = tested on: MCF7 breast
SN12C renal = tested on: SN12C renal
HCC-2998 colon = tested on: HCC-2998 colon
HOP-92 NSCLC = tested on: HOP-92 NSCLC
COLO 205 colon = tested on: COLO 205 colon
SW-620 colon = tested on: SW-620 colon

| Structure (SMILES) | TGI (KM12 colon) | TGI (EKVX NSCLC) | TGI (A498 renal) | TGI (M14 melanoma) [µM] | TGI (MCF7 breast) [µM] | TGI (SN12C renal) | TGI (HCC-2998 colon) [µM] | TGI (HOP-92 NSCLC) | TGI (COLO 205 colon) [µM] | TGI (SW-620 colon) [µM] | GI50 (HOP-92 NSCLC) | GI50 (COLO 205 colon) | GI50 (KM12 colon) | GI50 (EKVX NSCLC) | GI50 (A498 renal) | GI50 (M14 melanoma) | GI50 (MCF7 breast) | GI50 (SN12C renal) | GI50 (SW-620 colon) [µM] | GI50 (HCC-2998 colon) |
| --- | --- | --- | --- | --- | --- | --- | --- | --- | --- | --- | --- | --- | --- | --- | --- | --- | --- | --- | --- | --- |
| COC(=O)C1=C(O)C(C(=O)OC)[C@@]2(O)[C@@H](C(=O)OC)[C@H](C)C[C@@H]1[C@@H]2C(=O)OC (stereo partly drawn) | 58.1 µM | 69.6 µM | 44.3 µM | 39.9 | > 100 | > 100 µM | 30.9 |  |  |  |  |  |  |  |  |  |  |  |  |  |
| O=c1c(-c2ccccc2)c(SCCCN2CCCCC2)n(-c2ccccc2)c(=S)n1-c1ccccc1 | 41.6 µM | > 100 µM | 29 µM |  | 31.4 |  | 16.8 | 30.1 µM | 36.8 | 41.9 |  |  |  |  |  |  |  |  |  |  |
| O=c1[nH]c2ccccc2c2oc3ccccc3c12 | > 100 µM | > 100 µM | > 100 µM | > 100 | > 100 | > 100 µM | > 100 | > 100 µM | > 100 | > 100 |  |  |  |  |  |  |  |  |  |  |
| O=[N+]([O-])c1ccc(N/N=C\c2cc(Br)ccc2O)nc1 | 17.5 µM | 7.69 µM | > 100 µM | 4.87 | > 100 | 12.9 µM | > 100 | 6.77 µM | > 100 | > 100 | 1.62 µM | 3.3 µM | 1.23 µM | 2.4 µM | 6.11 µM | 1.22 µM | 0.489 µM | 0.807 µM | 0.934 | 3.18 µM |
| O=c1c2ccccc2nc2n1CCc1c-2[nH]c2ccccc12 |  | 60.5 µM |  | 32 |  |  |  | 31 µM | 37.9 | 52.9 |  |  |  |  |  |  |  |  |  |  |
| NCCCCNOCCCN | > 100 µM | > 100 µM |  | > 100 | > 100 | > 100 µM | > 100 | > 100 µM | > 100 | > 100 |  |  |  |  |  |  |  |  |  |  |
| COC(=O)C(C)NP(=O)(OCc1cccc(Cn2cnc3c(N)ncnc32)c1)Oc1ccccc1 (stereo not drawn) | > 100 µM | > 100 µM | > 100 µM |  | 66.6 | > 100 µM | 53.7 | > 100 µM |  | > 100 | 54.1 µM |  | 68.2 µM | > 100 µM | > 100 µM |  | 14.9 µM | > 100 µM | > 100 | 10.9 µM |
| CCOC(=O)c1c(Cl)c2c(n1Cc1ccccc1)-c1oncc1CCC2 | > 100 µM |  | > 100 µM | > 100 | > 100 |  |  |  | > 100 | > 100 |  | 3.53 µM | 3.71 µM |  | 4.38 µM | 3.78 µM | 3.21 µM |  | 3.81 |  |
| C/C=C(/CCC1NCCc2c1[nH]c1ccccc21)[Si](C)(C)C (stereo not drawn) | > 100 µM and 12.1 µM | > 100 µM and 22.3 µM | 72 µM and 23.5 µM |  |  | > 100 µM and 16.9 µM |  | 90.1 µM and 11.9 µM | 3.92 |  | 27 µM and 2.9 µM |  |  |  |  |  |  |  |  |  |
| CC(C)(C)OC(=O)CC(NC(=O)OCc1ccccc1)NC(=O)OC(C)(C)C (stereo not drawn) |  |  |  |  |  |  |  |  |  |  | 69.2 µg/mL | 50.6 µg/mL | 40.3 µg/mL | 38.8 µg/mL | 76.4 µg/mL | 56.8 µg/mL | 44.1 µg/mL | 51.9 µg/mL |  | 94.4 µg/mL |
